Test results published in article PMC9016704, “Dichlorophenylpyridine-Based Molecules Inhibit Furin through an Induced-Fit Mechanism” (ACS Chemical Biology, 2022).
Read-outs that look alike come from different tables or passages of the source. Non-standard residues stand in square brackets, D forms with d. Residues, ends and D or L forms follow the SMILES beside them. *: point of attachment. AMC = Cc1cc(=O)oc2cc(N*)ccc12; pGlu = O=C1CC[C@@H](C(=O)O)N1

Assays:
furin [1] = molecular target: T1, furin (Homo sapiens, UniProt P09958); assay: Protein thermostability measurement by nanoDSF; assay type: binding; parameters: made in house; conditions: for Tm #1 / Tm #2 / Tm Mean: furin-inhibitor complex; for Tm #1: replicate #1; for Tm #2: replicate #2; for Tm Mean: ligand-free furin 57.7 ± 0.1; for ΔTm: gain versus ligand-free furin
Source text: Interactions of inhibitors with furin increased the structural stability of the protease–inhibitor complexes compared with the ligand-free protease, which was indicated by an increase in the melting temperature (Tm).[23] We investigated the impact of the (3,5-dichlorophenyl)pyridine-based compounds on the structural stability of furin using differential scanning fluorimetry (nanoDSF[24]). […] The gain in Tm correlated well with the measured pIC50 (i.e., −log10(IC50)) values (Figure 2B), as reported for substrate-like inhibitors.[10],[25] […]
Protein thermostability measurement by nanoDSF. The thermostablity of furin-inhibitor complexes was further assessed by nanoDSF.16 In nanoDSF, protein unfolding was monitored by the change of the intrinsic fluorescence of the protein, mainly from tryptophan and tyrosine residues in the protein. 10 ul 0.2 mg mL-1 (3.8 µM) protein solutions (10mM Hepes/NaOH pH 7.5; 100 mM NaCl; 2 mM CaCl2) were loaded into nanoDSF grade standard capillaries (NanoTemper Technologies). The samples were heated up with a ramp rate of 1 °C min-1 over a temperature range of 20-95 °C. The thermal unfolding profiles of the proteins were recorded using the Prometheus NT.48 instrument (NanoTemper Technologies). Measurements were performed in duplicate. Unfolding transition temperatures (Tm) were automatically determined by the instrument software.
Target sequence in this assay (P09958 108-574 limits assumed): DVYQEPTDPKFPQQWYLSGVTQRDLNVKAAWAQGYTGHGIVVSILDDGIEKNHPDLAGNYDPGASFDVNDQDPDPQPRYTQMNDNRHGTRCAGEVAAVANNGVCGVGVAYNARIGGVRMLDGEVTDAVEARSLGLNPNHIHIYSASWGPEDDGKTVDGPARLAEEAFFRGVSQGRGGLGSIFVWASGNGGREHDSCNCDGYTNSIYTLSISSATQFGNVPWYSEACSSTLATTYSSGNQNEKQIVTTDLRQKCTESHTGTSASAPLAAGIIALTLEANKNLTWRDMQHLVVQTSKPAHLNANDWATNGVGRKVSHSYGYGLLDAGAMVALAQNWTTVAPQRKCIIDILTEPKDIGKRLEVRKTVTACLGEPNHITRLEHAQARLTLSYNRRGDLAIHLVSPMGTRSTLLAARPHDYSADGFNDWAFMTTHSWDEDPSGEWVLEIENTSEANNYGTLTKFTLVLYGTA

furin [2] = molecular target: T1, furin; assay: MALDI-TOF-MS-based furin activity assay, TGFβ-derived substrate; assay type: biochemical; parameters: made in house
Target sequence in this assay (P09958 108-574 limits assumed): as above

furin [3] = tested on: furin; parameters: method as in earlier work; conditions: cell-based inhibition assays; cited from earlier work
furin [4] = tested on: furin; parameters: method as in earlier work; conditions: enzyme kinetics measurements; cited from earlier work
furin [5] = molecular target: T1, furin; assay: Surface plasmon resonance binding to immobilized furin; conditions: for koff: read-out: koff Mean ± SD; for kon: read-out: kon Mean ± SD; for residence time: reciprocal of the mean koff, read-out: residence time τ
Procedure: As the (3,5-dichlorophenyl)pyridine derivatives bind tightly to furin, we used single-cycle kinetic experiments to determine their off-rates.[18] […]
SPR-experiments. 1, 3 and hexa-D-Arginine 14 were dissolved to a 10 mM stock solution in DMSO. This stock solution was initially diluted 100-fold in running buffer (10 mM HEPES pH 7.5, 100 mM NaCl, 2 mM CaCl2; 0.05% Tween; 1% DMSO) to a concentration of 100 µM and 1% DMSO. The stock solution in 1% DMSO was then further diluted in running buffer with […]
Furin was immobilized onto a NTA-chip after pre-loading with Ni2+ using standard procedures.
Immobilization levels of furin were in the range of 6000-6500 RU. Binding studies were performed with a Biacore T200 SPR system at 25°C in 10 mM HEPES pH 7.5, 100 mM NaCl, 2 mM CaCl2; 0.05% (v/v) Tween 20, and 1% (v/v) DMSO. Inhibitor 1 and 3 concentrations were […]
and 500 nM. Binding studies for 1 and 3 were performed in the single-cycle kinetic mode using […]
Target sequence in this assay (P09958 108-794): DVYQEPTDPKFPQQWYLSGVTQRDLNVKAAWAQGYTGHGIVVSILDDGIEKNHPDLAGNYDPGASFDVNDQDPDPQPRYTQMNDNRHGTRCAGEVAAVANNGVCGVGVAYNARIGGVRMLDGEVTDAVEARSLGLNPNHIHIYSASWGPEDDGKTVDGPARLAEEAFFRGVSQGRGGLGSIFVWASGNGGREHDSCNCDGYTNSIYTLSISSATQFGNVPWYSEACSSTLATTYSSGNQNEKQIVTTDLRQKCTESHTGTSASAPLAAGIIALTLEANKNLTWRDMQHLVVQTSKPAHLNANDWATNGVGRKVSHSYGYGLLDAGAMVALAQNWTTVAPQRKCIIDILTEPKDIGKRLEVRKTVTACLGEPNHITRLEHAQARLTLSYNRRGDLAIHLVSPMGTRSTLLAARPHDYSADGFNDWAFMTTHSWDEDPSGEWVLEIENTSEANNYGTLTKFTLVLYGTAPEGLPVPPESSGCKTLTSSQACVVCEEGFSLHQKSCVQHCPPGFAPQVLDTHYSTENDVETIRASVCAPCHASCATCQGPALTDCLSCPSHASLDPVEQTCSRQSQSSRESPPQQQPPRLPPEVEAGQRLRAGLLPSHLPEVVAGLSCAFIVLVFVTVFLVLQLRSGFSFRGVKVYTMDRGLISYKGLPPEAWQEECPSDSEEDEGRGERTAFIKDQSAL

furin [6] = molecular target: T1, furin; assay: biochemical
Target sequence in this assay (P09958 108-794): as above

furin [7] = molecular target: T1, furin; assay: Enzyme kinetic assay with fluorogenic substrate pERTKR-AMC; assay type: biochemical; parameters: made in house
Procedure: To determine the inhibition mode for compound 1, we performed enzyme kinetic assays with the fluorogenic PC substrate pyr-ERTKR-7-amino-4-methylcoumarin (pERTKR-AMC).
Additionally, internal calibration was performed using the monoisotopic peak of the respective […]
MALDI-TOF data, processed with flexAnalysis or MALDI Pharma Pulse, were exported as a comma delimited (.csv) file. Datasets were further processed with either GraphPad Prism (v9.00; GraphPad Software, La Jolla, CA) or in-house laboratory information management system (LIMS) software. Furin activity was tracked by analyzing the measured intensity for the enzymatic product as well as for the corresponding internal standard. Average control values were calculated and set to 100% activity (high controls) and 0% activity (low controls) while the response values of compound-containing wells were normalized against the controls and expressed as percentage of control (PoC). Determination of compound potencies was obtained by fitting the dose-response data to a four-parameter logistical equation.
Enzyme kinetics. Enzyme kinetic measurements were performed in 100 mM HEPES pH 7.5, 1 mM CaCl2, 0.01% (w/v) BSA, 0.001% (v/v) Tween20 with the fluorogenic substrate pyr-ERTKR-7-amino-4-methylcoumarin (pERTKR-AMC, Bachem) and 0.5 nM furin at 24°C. The reactions (100 µl) were initiated by addition of the substrate in 96-well black half area plates (Corning), pre-incubated for 30 min at 24°C and measured for 40 min in a 96-well plate reader (Tecan Infinite 200) at excitation and emission wavelengths of 380 nm and 460 nm, respectively. The Km value of pERTKR-AMC with furin was determined with 1:2 serial dilution series of the substrate from 100 µM to 0.78 µM. To investigate the inhibition mode of 1 with furin, 1:2 serial inhibitor dilution series were prepared in the concentration range between 100 nM and 0.78 nM and the reaction velocity was determined in presence of 4.4 µM, 8.9 µM and 13.3 µM pERTKR-AMC. Enzyme kinetic data were evaluated with GraphPad Prism. Km was calculated with the prebuild “Michaelis-Menten” model. […]
Target sequence in this assay (P09958 108-574 limits assumed): as the sequence (P09958 108-574 limits assumed) above

[8] = tested on: Total TGFβ production in the lung; parameters: method as in earlier work; conditions: cited from earlier work; for Total TGFβ production in the lung reduced by: 10 mg/kg of body weight; for bioavailability: bleomycin-induced lung fibrosis mouse model
furin [9] = tested on: furin; parameters: method as in PMID 10958789; conditions: read-out: IC50 (literature); cited from earlier work
[10] = TGFβ substrate, replicate #1, read-out: IC50 #1
[11] = TGFβ substrate, replicate #2, read-out: IC50 #2
[12] = TGFβ substrate, replicate #3, read-out: IC50 #3
[13] = TGFβ-derived substrate 2.5 µM, 0.02 nM furin, read-out: IC50 Mean ± SD
[14] = 25°C, hexa-D-Arg: multicycle, poor curve fit, read-out: KD Mean ± SD
[15] = injected intraperitoneally, mice

Compound | Tm #1 (furin [1]) [°C] | Tm #2 (furin [1]) [°C] | Tm Mean (furin [1]) [°C] | ΔTm (furin [1]) [°C] | IC50 (furin [2]; [13]) [nM] | IC50 (furin [3]) [nM] | IC50 (furin [4]) [nM] | Kd (furin [5]; [14]) [nM] | Kd (furin [5]; replicate #1, read-out: KD #1) [nM] | Kd (furin [5]; replicate #2, read-out: KD #2) [nM] | Kd (furin [5]; replicate #3, read-out: KD #3) [nM] | bioavailability ([8]; in words) | other results
COCCN1CCN(c2ccc(Oc3cc(CN4CCC(CNC(C)=O)CC4)cc(-c4cc(Cl)cc(Cl)c4)n3)cn2)CC1 [Inhibitor 1] | 68.5 | 68.4 | 68.4 | 10.8 | 2.3 | 0.8 | 1.3 | 28 ± 13 | 48.7 | 24.7 | 26.1 |  | IC50 (furin [2]; [10]): 2.6 nM; IC50 (furin [2]; [11]): 2.4 nM; IC50 (furin [2]; [12]): 2 nM; koff (furin [5]; 25°C, single-cycle kinetic): 0.00018 s⁻¹; kon (furin [5]; 25°C, single-cycle kinetic): 4600 ± 2500 M⁻¹ s⁻¹; residence time (furin [5]): 92 min; kon #1 (furin [5]; replicate #1): 4531 [Ms]-1; kon #2 (furin [5]; replicate #2): 3563 [Ms]-1; kon #3 (furin [5]; replicate #3): 8463 [Ms]-1; IC50 (furin [6]; IC50 #1): 1 nM; IC50 (furin [6]; IC50 #2): 1.1 nM; inhibition mode (furin [7]; Dixon plot, pERTKR-AMC 4.4-13.3 μM): competitive; Ki (furin [7]; competitive model, pERTKR-AMC 4.4, 8.9 and 13.3 µM, 0.5 nM furin): 3.8 ± 0.8 nM
CC(=O)NCC1CCN(Cc2cc(Oc3cnc(N4CCN(CCC(C)C(=O)O)CC4)nc3)nc(-c3cc(Cl)cc(Cl)c3)c2)CC1 (centres unmarked) [Inhibitor 2] | 69.4 | 69.2 | 69.3 | 11.6 | 1.3 | 5 | 0.5 |  |  |  |  | comparably high | Total TGFβ production in the lung reduced by ([8]; oral, mice): 75%; oral availability ([8]; mice, in words): orally available
CC(=O)NCC1CCN(Cc2cc(Oc3cnc(N4CCN(CCC(=O)O)CC4)nc3)nc(-c3cc(Cl)cc(Cl)c3)c2)CC1 [Inhibitor 3] | 68.7 | 68.5 | 68.6 | 10.9 | 1.8 | 10 | 0.16 | 3.1 ± 1.6 | 2.76 | 5.07 | 1.31 | comparably high | Total TGFβ production in the lung reduced by [8, 15]: 86%; IC50 (furin [2]; [10]): 2 nM; IC50 (furin [2]; [11]): 2.3 nM; IC50 (furin [2]; [12]): 1.2 nM; koff (furin [5]; 25°C, single-cycle kinetic): 0.00031 s⁻¹; kon (furin [5]; 25°C, single-cycle kinetic): 96000 M⁻¹ s⁻¹; residence time (furin [5]): 53.7 min; IC50 (furin [6]; IC50 #1): 0.5 nM; IC50 (furin [6]; IC50 #2): 1 nM; IC50 (furin [6]; IC50 Mean): 0.8 nM
CC(=O)NCC1CCN(Cc2cc(Oc3ccc(N4CCN(CCC(=O)O)CC4)nc3)nc(-c3cc(Cl)cc(Cl)c3)c2)CC1 [Inhibitor 4] | 68.3 | 68.2 | 68.3 | 10.5 | 2.6 | 25.1 | 0.25 |  |  |  |  | comparably high | Total TGFβ production in the lung reduced by [8, 15]: 69%
CN1CCN(c2ncc(Oc3cc(CN4CCC(OCC(=O)O)C4)cc(-c4cc(Cl)cc(Cl)c4)n3)cn2)CC1 (centres unmarked) [Inhibitor 5] | 61.8 | 61.8 | 61.8 | 4.0 | 78 | 630 | 13 |  |  |  |  |  | 
N=C(N)NCCC[C@@H](N)C(=O)N[C@H](CCCNC(=N)N)C(=O)N[C@H](CCCNC(=N)N)C(=O)N[C@H](CCCNC(=N)N)C(=O)N[C@H](CCCNC(=N)N)C(=O)N[C@H](CCCNC(=N)N)C(N)=O [hexa-D-arginine, reference compound] | 59.3 | 59.2 | 59.3 | 1.6 |  |  |  | 530 ± 320 | 437 | 966 | 200 |  | IC50 (furin [2]; IC50 #1, TGFβ substrate, replicate #1): 207 nM; IC50 (furin [2]; IC50 #2, TGFβ substrate, replicate #2): 64.2 nM; IC50 (furin [2]; IC50 #3, TGFβ substrate, replicate #3): 184 nM; IC50 (furin [2]; IC50 Mean ± SD, TGFβ-derived substrate 2.5 µM, 0.02 nM furin): 152 ± 77 nM; IC50 (furin [9]): 106 nM; koff Mean ± SD (furin [5]; 25°C, single-cycle kinetic): fast off-rate; IC50 (furin [6]; IC50 Mean): 126 nM
Cc1cc(=O)oc2cc(NC(=O)[C@H](CCCNC(=N)N)NC(=O)[C@H](CCCCN)NC(=O)[C@@H](NC(=O)[C@H](CCCNC(=N)N)NC(=O)[C@@H]3CCC(=O)N3)[C@@H](C)O)ccc12 [pERTKR-AMC, pyr-ERTKR-7-amino-4-methylcoumarin] ([pGlu]RTKR-{AMC}) |  |  |  |  |  |  |  |  |  |  |  |  | Km (furin [7]; Km of substrate pERTKR-AMC with furin): 9.6 µM
AQHLQSSRHRRALDTNY [TGFβ, peptide substrate surrogate derived from TGFβ] |  |  |  |  |  |  |  |  |  |  |  |  | Km (furin [2]; assay-specific apparent Km of the TGFβ-derived peptide substrate, read-out: Km,app): 1.8 µM
